Holding throughout (assay): DTP human tumour cell line panel, 48 h
The subject of experiment [1] is MCF7 breast.
The subject of experiment [2] is HOP-92 NSCLC.
Experiment [3] has as its system SNB-75 CNS.
Experiment [4] deals with COLO 205 colon.
Experiment [5] deals with SR leukemia.
For experiment [6], the system named is RPMI-8226 leukemia.
The subject of experiment [7] is NCI-H522 lung.
Experiment [8] deals with OVCAR-8 ovarian.
Experiment [9] deals with IGROV1 ovarian.
The test system of experiment [10] is SK-MEL-5 melanoma.

Structures are written as SMILES.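 Results reflect a 48-hour exposure of cells in 96-well plates to compound at five concentrations. Here, GI50 denotes the concentration required for 50% inhibition of growth. TGI marks complete inhibition of growth.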 A value given as a limit tells only on which side of the number the result lay.

The text below walks through data of PubChem BioAssay (NCI).

Usually GI50 stands for the concentration that inhibits growth by half. By TGI is commonly meant the concentration at which net growth stops. Higher therefore signals lower sensitivity of the cells. With `COc1cc(-c2cn(-c3ccc(Cl)cc3)c(=O)[nH]2)cc(OC)c1OC`, the GI50 in [1] was more than 100 µM; in experiment [2], more than 100 µM; in [3] it was more than 100 µM; in experiment [4], more than 100 µM; in experiment [5], 0.034 µM; in experiment [6], more than 100 µM. Moreover, the GI50 in experiment [7], in [8], in experiment [9] and in experiment [10] was more than 100 µM in each case. Moreover, the TGI is more than 100 µM in experiment [1]; more than 100 µM in experiment [2]; more than 100 µM in [3]; more than 100 µM in experiment [4]; 39.1 µM in experiment [5]; more than 100 µM in experiment [6]. Also, the TGI in [7], in [8], in [9] and in experiment [10] was more than 100 µM each time.

Regarding `O=C(N/N=C/c1ccc(O)cc1O)c1ccc(Nc2ccnc(C(F)(F)F)c2)cc1`, the TGI in experiment [1] is more than 100 µM; in experiment [2] it was more than 75.6 µM; in experiment [3] it was 26.7 µM; in experiment [4] it was more than 100 µM; in experiment [5], more than 100 µM; in experiment [6], more than 100 µM. For the same molecule, the total growth inhibition concentration (TGI) in [7] is more than 70 µM; in experiment [8] it was more than 100 µM; in experiment [9] it was more than 100 µM; in [10] it was more than 100 µM. Also, the GI50 was 15 µM in [2]; 3.72 µM in [3]; 7.61 µM in [4]; more than 100 µM in experiment [5]; more than 100 µM in [6]; 13.5 µM in experiment [7]. Further, the GI50 in [8] was 7.76 µM; in experiment [9] it was 21.6 µM; in [10] it was more than 100 µM.

As for `O=C(CNC(=O)c1cccc2ccccc12)Nc1ccccc1Oc1ccccc1`, the GI50 in experiment [1] was 0.306 µM; in experiment [2] it was 2.22 µM; in experiment [3], 0.231 µM; in experiment [4] it was 0.308 µM; in experiment [5], 0.0825 µM; in experiment [6] it was 0.318 µM. Further, the GI50 in experiment [7] is 0.151 µM; in experiment [8], 0.315 µM; in experiment [9], 0.91 µM; in experiment [10] it was 0.262 µM. For the same molecule, the TGI was more than 10 µM in experiment [1]; more than 10 µM in [2]; more than 10 µM in experiment [3]; 1.14 µM in experiment [4]; more than 10 µM in experiment [5]; more than 10 µM in experiment [6]. Also, the TGI is 0.612 µM in [7], more than 10 µM in [8], more than 10 µM in [9] and 4.1 µM in [10].

Take `Cc1cc2c(C(N)=O)cccc2n1-c1nc2c(c(NCc3ccccc3)n1)CCCN2`: the GI50 in experiment [1] was 0.0853 µM; in experiment [2], 0.261 µM; in experiment [3], 0.153 µM; in experiment [4], 0.195 µM; in [5], 0.117 µM; in experiment [6] it was 0.0401 µM. Moreover, the GI50 in experiment [7] was 0.164 µM; in experiment [8], 0.182 µM; in experiment [9] it was 0.194 µM; in [10], 0.0598 µM. Further, the TGI amounted to 0.747 µM in [1]; 0.541 µM in [2]; 0.342 µM in experiment [3]; 0.364 µM in [4]; 0.525 µM in experiment [5]; 0.325 µM in experiment [6]. Further, the TGI in [7] was determined as 0.359 µM; in [8] it was 0.431 µM; in experiment [9] it was 0.439 µM; in [10], 0.181 µM.

Turning to `c1cncc(CNc2ccccc2-c2nnc(Nc3ccc4c(c3)OCCO4)o2)c1`, the GI50 in [1] was 0.291 µM; in experiment [2] it was 0.222 µM; in experiment [3], 0.0527 µM; in experiment [4], 0.146 µM; in [5], 0.0424 µM; in experiment [6], 0.28 µM. Moreover, the GI50 is 0.0369 µM in [7], 0.435 µM in experiment [8], 0.5 µM in [9] and 0.0721 µM in [10]. Also, the TGI in [1] is more than 100 µM; in experiment [2] it was 20 µM; in experiment [3], more than 100 µM; in [4], 0.817 µM; in [5] it was more than 36 µM; in experiment [6], 17.7 µM. The TGI in experiment [7] was 7.9 µM; in experiment [8] it was more than 100 µM; in experiment [9] it was more than 100 µM; in experiment [10] it was 2.03 µM.

`NC(=O)C1=C(c2ccccc2)c2ccccc2C1=O`: the TGI in [1] worked out at 32.9 µM; in experiment [2], 35.3 µM; in experiment [3], 36.2 µM; in experiment [4], 38.5 µM; in experiment [5], 26.3 µM; in experiment [6], 72.4 µM. Besides, the TGI in experiment [7] was found to be 45.1 µM; in experiment [8], 31 µM; in [9] it was 30.6 µM; in experiment [10], 33.6 µM.

For the molecule `CCc1oc2ccccc2c1C(=O)c1cc(Br)c(O)c(Br)c1`, the TGI in [1] came out at 51.5 µM; in experiment [2], 64.2 µM; in experiment [3], 48.6 µM; in experiment [4], 40.6 µM; in experiment [5], 55.4 µM; in experiment [6] it was 75.5 µM. Also, the total growth inhibition concentration (TGI) in experiment [7] is 43.1 µM; in [8], more than 100 µM; in experiment [9] it was more than 100 µM; in [10], 32.2 µM.

For the molecule `COc1cccc(/C=C/C(=O)c2cc3c(N)c(C(=O)Nc4cccc(Cl)c4C)sc3nc2C)c1`, the GI50 in experiment [1] is 0.473 µM; in experiment [2], 1.04 µM; in experiment [3], 0.679 µM; in experiment [4], 1.38 µM; in experiment [5], 0.217 µM; in experiment [6], 0.257 µM. Besides, the GI50 in experiment [7] was 0.424 µM; in experiment [8], 1.49 µM; in [9], 0.832 µM; in experiment [10], 1 µM. For the same molecule, the TGI in [1] is more than 24.8 µM; in experiment [2], 3.16 µM; in experiment [3] it was more than 12.1 µM; in experiment [4] it was 3.63 µM; in [5], more than 12.3 µM; in [6] it was 1.57 µM. Also, the TGI was 2.86 µM in experiment [7], more than 50 µM in [8], 1.85 µM in experiment [9] and 2.34 µM in experiment [10].
